Patent US6353006B1, “Substituted 2-arylimino heterocycles and compositions containing them, for use as progesterone receptor binding agents” (Bayer Corporation, priority 1999, dated 2002)

Row | SMILES | melting point [°C]
1 | Cc1cc([N+](=O)[O-])ccc1N=C1SC(=O)CN1CC(C)C [Entry 310, 2-(2-methyl-4-nitrophenylimino)-3-isobutyl-1,3-thiazolidin-5-one] | 152
2 | CCc1cc(C=C(C#N)C#N)ccc1N=C1SCC2(CCCC2)N1C1CCCC1 [Entry 271, 2-(2-ethyl-4-(2,2-dicyanovinyl)phenylimino)-1-cyclopentyl-3-thia-1-azaspiro[4.4]nonane] | 135 to 136
3 | CCc1cc(/C=C/[N+](=O)[O-])ccc1N=C1SCC2(CCCC2)N1C1CCCC1 [Entry 269, 2-(2-ethyl-4-((1E)-2-nitrovinyl)phenylimino)-1-cyclopentyl-3-thia-1-azaspiro[4.4]nonane] | 141 to 142
4 | CCc1cc(C(=O)O)ccc1N=C1SCC2(CCCC2)N1C1CCCC1 [Entry 253, 2-(4-carboxy-2-ethylphenylimino)-1-cyclopentyl-3-thia-1-azaspiro[4.4]nonane] | 208 to 209
5 | CCc1cc(C(C)=O)ccc1N=C1SCC2(CCCC2)N1C1CCCC1 [Entry 255, 2-(4-acetyl-2-ethylphenylimino)-1-cyclopentyl-3-thia-1-azaspiro[4.4]nonane] | 114 to 115
6 | CCc1cc(C#N)ccc1N=C1OCC(C)(C)N1C1CCCC1 [Entry 319, 2-(4-cyano-2-ethylphenylimino)-3-cyclopentyl-4,4-dimethyl-1,3-oxazolidine] | 112 to 114
